Holding throughout (type): cell-based
Test [1] concerns the target T1, mouse GPR34 (Mus musculus, UniProt Q9R1K6).
T1 construct: expressed in transfected cells; host or cells: HEK293
Nature of the test: TGFα shedding assay, agonistic activity on GPR34. The arrangement: key to GPR34/LPS2 agonistic activity, TGFα shedding assay: an activity that is 100 folds that of control compound 1 as +++++; an activity that is 10 folds that of control compound 1 as ++++; the activity of the control compound 1 (LPS18:1) as +++; an activity that is 1/10 as ++; an activity that is 1/100 as +; an activity below that as −. The note with it: for GPR34/LPS2 agonistic activity, TGFα shedding assay: HEK293 cells transfected with mouse GPR34 and AP labeled TGFα, activity relative to control compound 1 (LPS18:1) = +++. As for the experimental part:
(§1) [Test Example 1]Assay of Agonistic Activity by TGFα Shedding Assay
(§2) HEK293 cells were suspended in the Dulbecco's modified Eagle's medium (DMEM) containing 10% fetal bovine serum (FCS) to exist in an amount of 2.0×10^5 cells/mL, and they were seeded in 60 mm dishes at 4 mL per dish. Transfection of different expression vectors was performed using LipofectAMINE 2000 (Invitrogen) after 24 hours of culture under the presence of 5% CO2. For each 60 mm dish, 1 μg of AP labeled TGFα plasmid vectors were used, and 1 μg of pCAGGS plasmid vectors of mouse GPR34, P2Y10 or GPR174 were used. The plasmid vectors were prepared by methods disclosed in Patent Documents 2 and 5. Note that the AP labeled TGFα is a protein comprising a membrane-bound pro-TGFα whose N terminal end is fused with human placental alkaline phosphatase, and the plasmid vector of the AP labeled TGFα may be produced based on the teaching of Tokumaru et al., J Cell Biol 151, 209-220 (2000). After 24 hours of transfection, the cells were peeled off using trypsin/EDTA, and they were re-suspended in a culture medium to form an amount of 2.0×10^4 cells/well to be seeded to a 96-well plate. Hanks' Balanced Salt Solution (HBSS, containing 5 mM HEPES) was used for the re-suspended solution when stimulating with the compound. After it was left still for 30 min., subject compounds of various concentrations were added and the solutions were left still for another 1 hour under the presence of 5% CO2. The 96-well plate was subjected to centrifugation (190×g, 3 min.), then 80 μl of supernatant was transferred to a different 96-well plate. A reaction buffer (40 mM Tris-HCl (pH 9.5)) containing 10 mM p-nitrophenyl phosphate (p-NPP) was added in an amount of 80 μL to the supernatant and cells. The OD405 was measured with a micro plate reader (background), then after heating at 37° C. for an hour, OD405 was re-measured. The AP activity for each well was obtained by subtracting the background from the second absorbance and plugging the difference into the following formula.
(§3) In addition, the value obtained by subtracting the AP activity (%) of the non-stimulated group was used in the vertical axis to create a graph. The graphs of the test results for Example 3 (lysoPS sn-1-deoxy sn3 C3-ph-o-OBn-m-Oph) and Example 31 (lysoPS sn-1-OMe sn3 C3-ph-o-OBn-m-Oph) are shown in FIG. 1.
(§4) The obtained activity is shown by plotting the compound concentration and AP activity (%), then representing the activity of the control compound 1 (LPS18:1) as +++, an activity that is 10 folds that of control compound 1 as ++++, an activity that is 100 folds that of control compound 1 as +++++, an activity that is 1/10 as ++, and an activity that is 1/100 as +, and an activity below that as −.

The target of test [2] is T2, mouse P2Y10 (Mus musculus, UniProt Q8BFU7).
T2 construct: expressed in transfected cells; host or cells: HEK293
T2 sequence (Q8BFU7 whole entry): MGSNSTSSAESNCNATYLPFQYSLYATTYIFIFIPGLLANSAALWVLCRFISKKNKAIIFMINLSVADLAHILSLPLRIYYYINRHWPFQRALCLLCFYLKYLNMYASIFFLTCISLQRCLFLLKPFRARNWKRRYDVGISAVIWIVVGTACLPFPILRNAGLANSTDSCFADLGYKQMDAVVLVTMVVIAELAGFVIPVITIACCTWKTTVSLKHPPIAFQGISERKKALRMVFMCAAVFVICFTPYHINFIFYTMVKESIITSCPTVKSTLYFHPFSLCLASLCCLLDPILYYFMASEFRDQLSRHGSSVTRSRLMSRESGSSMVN
Nature of the test: TGFα shedding assay, agonistic activity on P2Y10. The arrangement: key: an activity that is 100 folds that of control compound 1 as +++++; an activity that is 10 folds that of control compound 1 as ++++; the activity of the control compound 1 (LPS18:1) as +++; an activity that is 1/10 as ++; an activity that is 1/100 as +; an activity below that as −. The note with it: HEK293 cells transfected with mouse P2Y10 and AP labeled TGFα; activity relative to control compound 1 (LPS18:1) = +++. As to the method: as §1, §2, §3, §4

For test [3], the target named is T3, mouse GPR174 (Mus musculus, UniProt Q3U507).
T3 construct: expressed in transfected cells; host or cells: HEK293
T3 sequence (Q3U507 whole entry): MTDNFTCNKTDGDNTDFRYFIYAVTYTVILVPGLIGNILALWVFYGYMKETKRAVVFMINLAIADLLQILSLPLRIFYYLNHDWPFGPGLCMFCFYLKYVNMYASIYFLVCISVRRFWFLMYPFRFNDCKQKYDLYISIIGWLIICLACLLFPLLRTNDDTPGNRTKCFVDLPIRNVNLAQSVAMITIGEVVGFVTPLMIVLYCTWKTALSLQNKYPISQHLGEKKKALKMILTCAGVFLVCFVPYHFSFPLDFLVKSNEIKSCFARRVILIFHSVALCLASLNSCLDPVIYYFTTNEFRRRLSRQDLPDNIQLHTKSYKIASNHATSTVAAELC
Briefly: TGFα shedding assay, agonistic activity on GPR174. The note with it: HEK293 cells transfected with mouse GPR174 and AP labeled TGFα; activity relative to control compound 1 (LPS18:1) = +++. The arrangement: key: an activity that is 100 folds that of control compound 1 as +++++; an activity that is 10 folds that of control compound 1 as ++++; the activity of the control compound 1 (LPS18:1) as +++; an activity that is 1/10 as ++; an activity that is 1/100 as +; an activity below that as −. As for the experimental part: as §1, §2, §3, §4

Results on 14 compounds are retold here after patent publication US9469665B2, “Compound having lysophosphatidylserine receptor function modulation activity” (THE UNIVERSITY OF TOKYO, priority 2013, dated 2016).

T1 sequence (Q9R1K6 whole entry): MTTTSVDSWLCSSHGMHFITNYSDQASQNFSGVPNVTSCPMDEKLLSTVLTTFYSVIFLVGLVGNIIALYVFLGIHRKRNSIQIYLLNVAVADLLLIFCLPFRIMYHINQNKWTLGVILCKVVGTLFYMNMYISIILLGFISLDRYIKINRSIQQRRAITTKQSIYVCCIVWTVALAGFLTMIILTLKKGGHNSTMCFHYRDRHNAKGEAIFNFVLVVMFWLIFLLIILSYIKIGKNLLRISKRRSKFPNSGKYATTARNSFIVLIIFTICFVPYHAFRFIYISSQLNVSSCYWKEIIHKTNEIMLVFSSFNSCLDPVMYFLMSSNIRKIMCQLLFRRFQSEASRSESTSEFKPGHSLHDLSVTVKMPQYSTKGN

As to `CCCCCCCC/C=C\CCCCCCCC(=O)OC[C@@H](COCc1ccccc1)OP(=O)(O)OC[C@H](N)C(=O)O` [Example 7, (9Z)-Octadeca-9-enoic acid (2R)-2-[((2S)-2-amino-2-carboxy-ethoxy)-hydroxy-phosphoryloxy]-3-benzyloxy-propyl ester], the “GPR34/LPS2 agonistic activity, TGFα shedding assay” value (shortened to “GPR34/LPS2 agonistic activity”) in test [1] is recorded as “++”. Besides, the “P2Y10/LPS2 agonistic activity, TGFα shedding assay” value (shortened to “P2Y10/LPS2 agonistic activity”) in test [2] is recorded as “−”. Further, the “GPR174/LPS3 agonistic activity, TGFα shedding assay” value (shortened to “GPR174/LPS3 agonistic activity”) in test [3] is given as “−”.

Take `CCCCCCCC/C=C\CCCCCCCC(=O)OC[C@@H](COC)OP(=O)(O)OC[C@H](N)C(=O)O` [Example 4, (9Z)-Octadeca-9-enoic acid (2R)-2-[((2S)-2-amino-2-carboxy-ethoxy)-hydroxy-phosphoryloxy]-3-methoxy-propyl ester]: the “GPR34/LPS2 agonistic activity” value in test [1] is on record as “++++”. Besides, the “P2Y10/LPS2 agonistic activity” value in test [2] is “+”. For the same compound, the “GPR174/LPS3 agonistic activity” value in test [3] is recorded as “−”.

For the compound `CCCCCCCC/C=C\CCCCCCCC(=O)OC[C@H](COC)OP(=O)(O)OC[C@H](N)C(=O)O` [Example 5, (9Z)-Octadeca-9-enoic acid (2S)-2-[((2S)-2-amino-2-carboxy-ethoxy)-hydroxy-phosphoryloxy]-3-methoxy-propyl ester], the “GPR34/LPS2 agonistic activity” value in test [1] is on record as “++”. In addition, the “P2Y10/LPS2 agonistic activity” value in test [2] is recorded as “+”. In addition, the “GPR174/LPS3 agonistic activity” value in test [3] was “−”.

As for `CCCCCCCCCCCOc1ccccc1CCC(=O)OC[C@H]1OCCC[C@@H]1OP(=O)(O)OC[C@H](N)C(=O)O` [Example 21, (2S)-2-amino-3-(hydroxyl-{(2R,3S)-2-[3-(2-undecyloxy-phenyl)-propionyloxymethyl]-tetrahydro-pyran-3-yloxy}-phosphoryloxy)-propionic acid], the “GPR34/LPS2 agonistic activity” value in test [1] was “−~++”. Moreover, the “P2Y10/LPS2 agonistic activity” value in test [2] is “++”. The “GPR174/LPS3 agonistic activity” value in test [3] was “−”.

In the case of `CCCCCCCC/C=C\CCCCCCCC(=O)OC[C@H](C)OP(=O)(O)OC[C@H](N)C(=O)O` [Example 2, (9Z)-Octadeca-9-enoic acid (2S)-2-[((2S)-2-amino-2-carboxy-ethoxy)-hydroxy-phosphoryloxy]-propyl ester], in test [1], the “GPR34/LPS2 agonistic activity” value is recorded as “+++”. Besides, the “P2Y10/LPS2 agonistic activity” value in test [2] was “++~+++”. Also, the “GPR174/LPS3 agonistic activity” value in test [3] is listed as “+~++”.

Turning to `CCCCCCCCCCCOc1ccccc1CCC(=O)OC[C@H]1OCC=C[C@@H]1OP(=O)(O)OC[C@H](N)C(=O)O` [Example 19, (2S)-2-amino-3-(hydroxyl-{(2R,3S)-2-[3-(2-undecyloxy-phenyl)-propionyloxymethyl]-3,6-dihydro-2H-pyran-3-yloxy}-phosphoryloxy)-propionic acid], the “GPR34/LPS2 agonistic activity” value in test [1] is listed as “−”. The “P2Y10/LPS2 agonistic activity” value in test [2] is “++”. For the same compound, in test [3], the “GPR174/LPS3 agonistic activity” value is reported as “−”.

Take `CCCCCCCCCCCOc1ccccc1CCC(=O)OC[C@H]1OCC=C[C@H]1OP(=O)(O)OC[C@H](N)C(=O)O` [Example 25, (2S)-2-amino-3-(hydroxy-{(2R,3R)-2-[3-(2-undecyloxy-phenyl)-propionyloxymethyl]-3,6-dihydro-2H-pyran-3-yloxy}-phosphoryloxy)-propionic acid]: in test [1], the “GPR34/LPS2 agonistic activity” value is listed as “+~++”. The “P2Y10/LPS2 agonistic activity” value in test [2] is recorded as “+++~++++”. Also, the “GPR174/LPS3 agonistic activity” value in test [3] is listed as “−”.

In the case of `CCCCCCCC/C=C\CCCCCCCC(=O)OC[C@@H](C)OP(=O)(O)OC[C@H](N)C(=O)O` [Example 1, (9Z)-Octadeca-9-enoic acid (2R)-2-[((2S)-2-amino-2-carboxy-ethoxy)-hydroxy-phosphoryloxy]-propyl ester], the “GPR34/LPS2 agonistic activity” value in test [1] is listed as “++++”. Moreover, in test [2], the “P2Y10/LPS2 agonistic activity” value is on record as “++”. Moreover, the “GPR174/LPS3 agonistic activity” value in test [3] is given as “+~++”.

`C[C@H](COC(=O)CCc1ccccc1OCc1cccc(Oc2ccccc2)c1)OP(=O)(O)OC[C@H](N)C(=O)O` [Example 3, (2S)-2-amino-3-[hydroxyl-((1R)-1-methyl-2-{3-[2-(3-phenoxy-benzyloxy)-phenyl]-propionyloxy}-ethoxy)-phosphoryloxy]-propionic acid]: in test [1], the “GPR34/LPS2 agonistic activity” value is recorded as “+++++”. Besides, the “receptor selectivity of agonist activity among GPR34, P2Y10, GPR174 (graphs of FIG. 1)” value in test [1] (TGFα shedding assay, HEK293 cells, AP activity (%) vs concentration) is “agonists having selectivity against GPR34”. Further, the “P2Y10/LPS2 agonistic activity” value in test [2] is “++”. In test [3], the “GPR174/LPS3 agonistic activity” value is “−”.

Turning to `CCCCCCCCCCCOc1ccccc1CCC(=O)O[C@H]1CCCO[C@@H]1COP(=O)(O)OC[C@H](N)C(=O)O` [Example 14, (2S)-2-amino-3-(hydroxy-{(2R,3S)-3-[3-(2-undecyloxy-phenyl)-propionyloxy]-tetrahydro-pyran-2-ylmethoxy}-phosphoryloxy)-propionic acid], the “GPR34/LPS2 agonistic activity” value in test [1] is reported as “−”. Further, in test [2], the “P2Y10/LPS2 agonistic activity” value is on record as “+”. Moreover, the “GPR174/LPS3 agonistic activity” value in test [3] is on record as “−”.

In the case of `N[C@@H](COP(=O)(O)O[C@H]1CCCO[C@@H]1COC(=O)CCc1ccccc1OCc1cccc(Oc2ccccc2)c1)C(=O)O` [Example 22, (2S)-2-amino-3-[hydroxyl-((2R,3S)-2-{3-[2-(3-phenoxy-benzyloxy)-phenyl]-propionyloxymethyl}-tetrahydropyran-3-yloxy)-phosphoryloxy]-propionic acid], the “GPR34/LPS2 agonistic activity” value in test [1] is recorded as “+++”. Further, the “P2Y10/LPS2 agonistic activity” value in test [2] was “−”. In addition, the “GPR174/LPS3 agonistic activity” value in test [3] was “−”.

As for `CCCCCCCCCCCOc1ccccc1CCC(=O)O[C@@H]1CCOC[C@H]1OP(=O)(O)OC[C@H](N)C(=O)O` [Example 8, (2S)-2-amino-3-((3R,4R)-hydroxy-{4-[3-(2-undecyloxy-phenyl)-propionyloxy]-tetrahydro-pyran-3-yloxy}-phosphoryloxy)-propionic acid], the “GPR34/LPS2 agonistic activity” value in test [1] is listed as “+++~++++”. Also, in test [2], the “P2Y10/LPS2 agonistic activity” value is “+++”. Moreover, the “GPR174/LPS3 agonistic activity” value in test [3] is on record as “−”.

`N[C@@H](COP(=O)(O)O[C@@H]1CCCO[C@@H]1COC(=O)CCc1ccccc1OCc1cccc(Oc2ccccc2)c1)C(=O)O` [Example 17]: in test [1], the “GPR34/LPS2 agonistic activity” value is reported as “++++”. In addition, in test [2], the “P2Y10/LPS2 agonistic activity” value is reported as “−”. Further, the “GPR174/LPS3 agonistic activity” value in test [3] was “−”.

Regarding `CCCCCCCCCCCOc1ccccc1CCC(=O)O[C@@H]1COCC[C@H]1OP(=O)(O)OC[C@H](N)C(=O)O` [Example 9, (2S)-2-amino-3-(hydroxyl-{(3R,4R)-3-[3-(2-undecyloxy-phenyl)-propionyloxy]-tetrahydropyran-4-yloxy}-phosphoryloxy)-propionic acid], in test [1], the “GPR34/LPS2 agonistic activity” value was “++++~+++++”. Besides, in test [2], the “P2Y10/LPS2 agonistic activity” value is “++~+++”. For the same compound, the “GPR174/LPS3 agonistic activity” value in test [3] is on record as “−”.
